Measurements published in US11752150B2, “Anti-tumor immunotherapy enhancer” (Nobuo Tsukamoto, priority 2017, dated 2023).

Tested on: mouse cancer cells MCA205 IDO1WT
Experiment: Tumor volume in C57BL/6 mice implanted with MCA205 IDO1WT cells (1-MT and Y15)
Format: in vivo
Conditions: MCA205 IDO1WT in C57BL/6; Y15 600 μg/animal i.p. once a day from Day 5; 1-MT 4 mg/mL in drinking water from Day 5; n=5; FIG. 23
Protocol: On Day 0, 5×10^5 mouse cancer cells MCA205 IDO1WT expressing the wild-type mouse IDO1 gene were implanted into the ventral side of C57BL/6 mice.
The FAK inhibitor Y15 (MedChem Express) was dissolved in PBS and administered intraperitoneally once a day from Day 5 at 600 μg/100 μl/animal. In the control group, PBS was intraperitoneally administered at 100 μl/animal once a day from Day 5.
The major axis and minor axis of the tumor were measured every two days. The tumor volume was calculated as 0.5×(major axis)×(minor axis)^2.

With `Cl.Cl.Cl.Cl.Nc1cc(N)c(N)cc1N` [Y15, 1,2,4,5-benzenetetraamine tetrahydrochloride] the tumor volume was “a smaller tumor was formed as compared with the group to which neither drug was administered”.
